Measured values published in the supplement of paper PMC4862054.

These compounds were tested on DU-4475 (assay: normalised viability (% of control), CellTiter-Blue; higher = more viable cells (about 100 = DMSO control)). Details: 10 nM; incubation time: 72 h.
Summary of the method: (§1)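 Vehicle (100) and a positive kill control (0) anchored the normalisation of each plate, and Z'-factor was used for quality control. Breast cancer cell lines in 20 µl suspension were incubated 72 h over compound in 5 µl medium in 384-well plates, followed by CellTiter-Blue at 560/590 nm. The value is normalised viability at a single listed concentration of the series.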

Compound | normalised viability
CC(=O)Nc1ccc(C(=O)Nc2ccccc2N)cc1 [CI-994] | 107%
Cc1ccc(C(=O)Nc2ccc(CN3CCN(C)CC3)c(C(F)(F)F)c2)cc1C#Cc1cnc2cccnn12 [Ponatinib] | 84.5%

Same assay, conditions: 30 nM; incubation time: 72 h

Compound | normalised viability
Oc1nc(-c2ccc(C(F)(F)F)cc2)nc2c1CSCC2 [XAV-939] | 101%
N.N.[Cl][Pt][Cl] [Cisplatin] | 116%
CN[C@@H]1C[C@H]2O[C@@](C)([C@@H]1OC)n1c3ccccc3c3c4c(c5c6ccccc6n2c5c31)C(=O)N[C@H]4O [UCN-01] | 81.5%
C[C@@H](Oc1cc(-c2cnn(C3CCNCC3)c2)cnc1N)c1c(Cl)ccc(F)c1Cl [Crizotinib] | 98.8%
CC1(C)NC(=O)N(c2ccc([N+](=O)[O-])c(C(F)(F)F)c2)C1=O [Nilutamide] | 108%
CNCc1ccc(-c2[nH]c3cc(F)cc4c3c2CCNC4=O)cc1 [Rucaparib] | 96.6%

Same assay, conditions: 100 nM; incubation time: 72 h

Compound | normalised viability
Oc1nc(-c2ccc(C(F)(F)F)cc2)nc2c1CSCC2 [XAV-939] | 121%
N.N.[Cl][Pt][Cl] [Cisplatin] | 88.8%
CN[C@@H]1C[C@H]2O[C@@](C)([C@@H]1OC)n1c3ccccc3c3c4c(c5c6ccccc6n2c5c31)C(=O)N[C@H]4O [UCN-01] | 78.3%
C[C@@H](Oc1cc(-c2cnn(C3CCNCC3)c2)cnc1N)c1c(Cl)ccc(F)c1Cl [Crizotinib] | 96.2%
CC1(C)NC(=O)N(c2ccc([N+](=O)[O-])c(C(F)(F)F)c2)C1=O [Nilutamide] | 90.7%
CNCc1ccc(-c2[nH]c3cc(F)cc4c3c2CCNC4=O)cc1 [Rucaparib] | 83%

The compounds below were run on HCC1599 in the same assay as above. Details: 1 nM; incubation time: 72 h.
Summary of the method: as §1

Compound | normalised viability
CC(=O)Nc1ccc(C(=O)Nc2ccccc2N)cc1 [CI-994] | 104%
Cc1ccc(C(=O)Nc2ccc(CN3CCN(C)CC3)c(C(F)(F)F)c2)cc1C#Cc1cnc2cccnn12 [Ponatinib] | 95.4%

Same assay, conditions: 10 nM; incubation time: 72 h

Compound | normalised viability
Oc1nc(-c2ccc(C(F)(F)F)cc2)nc2c1CSCC2 [XAV-939] | 118%
N.N.[Cl][Pt][Cl] [Cisplatin] | 100%
CN[C@@H]1C[C@H]2O[C@@](C)([C@@H]1OC)n1c3ccccc3c3c4c(c5c6ccccc6n2c5c31)C(=O)N[C@H]4O [UCN-01] | 81.1%
C[C@@H](Oc1cc(-c2cnn(C3CCNCC3)c2)cnc1N)c1c(Cl)ccc(F)c1Cl [Crizotinib] | 105%
CC1(C)NC(=O)N(c2ccc([N+](=O)[O-])c(C(F)(F)F)c2)C1=O [Nilutamide] | 97.9%
CNCc1ccc(-c2[nH]c3cc(F)cc4c3c2CCNC4=O)cc1 [Rucaparib] | 95.8%

Same assay, conditions: 100 nM; incubation time: 72 h

Compound | normalised viability
CC(=O)Nc1ccc(C(=O)Nc2ccccc2N)cc1 [CI-994] | 99.8%
Cc1ccc(C(=O)Nc2ccc(CN3CCN(C)CC3)c(C(F)(F)F)c2)cc1C#Cc1cnc2cccnn12 [Ponatinib] | 95.4%

Same assay, conditions: 1000 nM; incubation time: 72 h

Compound | normalised viability
Oc1nc(-c2ccc(C(F)(F)F)cc2)nc2c1CSCC2 [XAV-939] | 95%
CC(=O)Nc1ccc(C(=O)Nc2ccccc2N)cc1 [CI-994] | 84.8%
N.N.[Cl][Pt][Cl] [Cisplatin] | 93.4%
Cc1ccc(C(=O)Nc2ccc(CN3CCN(C)CC3)c(C(F)(F)F)c2)cc1C#Cc1cnc2cccnn12 [Ponatinib] | 64.9%
CN[C@@H]1C[C@H]2O[C@@](C)([C@@H]1OC)n1c3ccccc3c3c4c(c5c6ccccc6n2c5c31)C(=O)N[C@H]4O [UCN-01] | 48.3%
C[C@@H](Oc1cc(-c2cnn(C3CCNCC3)c2)cnc1N)c1c(Cl)ccc(F)c1Cl [Crizotinib] | 99.1%
CC1(C)NC(=O)N(c2ccc([N+](=O)[O-])c(C(F)(F)F)c2)C1=O [Nilutamide] | 82.5%
CNCc1ccc(-c2[nH]c3cc(F)cc4c3c2CCNC4=O)cc1 [Rucaparib] | 128%

Same assay, conditions: 10000 nM; incubation time: 72 h

Compound | normalised viability
Oc1nc(-c2ccc(C(F)(F)F)cc2)nc2c1CSCC2 [XAV-939] | 115%
N.N.[Cl][Pt][Cl] [Cisplatin] | 86.7%
CN[C@@H]1C[C@H]2O[C@@](C)([C@@H]1OC)n1c3ccccc3c3c4c(c5c6ccccc6n2c5c31)C(=O)N[C@H]4O [UCN-01] | 21.2%
C[C@@H](Oc1cc(-c2cnn(C3CCNCC3)c2)cnc1N)c1c(Cl)ccc(F)c1Cl [Crizotinib] | 60.8%
CC1(C)NC(=O)N(c2ccc([N+](=O)[O-])c(C(F)(F)F)c2)C1=O [Nilutamide] | 113%
CNCc1ccc(-c2[nH]c3cc(F)cc4c3c2CCNC4=O)cc1 [Rucaparib] | 96.2%

The compounds below were run on CAL-85-1 in the same assay as above. Details: 0.3 nM; incubation time: 72 h.
Summary of the method: as §1

Compound | normalised viability
CC(=O)Nc1ccc(C(=O)Nc2ccccc2N)cc1 [CI-994] | 104%
Cc1ccc(C(=O)Nc2ccc(CN3CCN(C)CC3)c(C(F)(F)F)c2)cc1C#Cc1cnc2cccnn12 [Ponatinib] | 92.5%

Same assay, conditions: 3 nM; incubation time: 72 h

Compound | normalised viability
Oc1nc(-c2ccc(C(F)(F)F)cc2)nc2c1CSCC2 [XAV-939] | 96%
CC(=O)Nc1ccc(C(=O)Nc2ccccc2N)cc1 [CI-994] | 104%
N.N.[Cl][Pt][Cl] [Cisplatin] | 96.2%
Cc1ccc(C(=O)Nc2ccc(CN3CCN(C)CC3)c(C(F)(F)F)c2)cc1C#Cc1cnc2cccnn12 [Ponatinib] | 85.4%
CN[C@@H]1C[C@H]2O[C@@](C)([C@@H]1OC)n1c3ccccc3c3c4c(c5c6ccccc6n2c5c31)C(=O)N[C@H]4O [UCN-01] | 87.4%
C[C@@H](Oc1cc(-c2cnn(C3CCNCC3)c2)cnc1N)c1c(Cl)ccc(F)c1Cl [Crizotinib] | 91.7%
CC1(C)NC(=O)N(c2ccc([N+](=O)[O-])c(C(F)(F)F)c2)C1=O [Nilutamide] | 98%
CNCc1ccc(-c2[nH]c3cc(F)cc4c3c2CCNC4=O)cc1 [Rucaparib] | 93.2%

Same assay, conditions: 10 nM; incubation time: 72 h

Compound | normalised viability
CC(=O)Nc1ccc(C(=O)Nc2ccccc2N)cc1 [CI-994] | 101%
Cc1ccc(C(=O)Nc2ccc(CN3CCN(C)CC3)c(C(F)(F)F)c2)cc1C#Cc1cnc2cccnn12 [Ponatinib] | 101%

Same assay, conditions: 30 nM; incubation time: 72 h

Compound | normalised viability
Oc1nc(-c2ccc(C(F)(F)F)cc2)nc2c1CSCC2 [XAV-939] | 92.8%
N.N.[Cl][Pt][Cl] [Cisplatin] | 87.7%
CN[C@@H]1C[C@H]2O[C@@](C)([C@@H]1OC)n1c3ccccc3c3c4c(c5c6ccccc6n2c5c31)C(=O)N[C@H]4O [UCN-01] | 73.6%
C[C@@H](Oc1cc(-c2cnn(C3CCNCC3)c2)cnc1N)c1c(Cl)ccc(F)c1Cl [Crizotinib] | 91%
CC1(C)NC(=O)N(c2ccc([N+](=O)[O-])c(C(F)(F)F)c2)C1=O [Nilutamide] | 88.9%
CNCc1ccc(-c2[nH]c3cc(F)cc4c3c2CCNC4=O)cc1 [Rucaparib] | 84.2%

Same assay, conditions: 100 nM; incubation time: 72 h

Compound | normalised viability
Oc1nc(-c2ccc(C(F)(F)F)cc2)nc2c1CSCC2 [XAV-939] | 94.7%
N.N.[Cl][Pt][Cl] [Cisplatin] | 95.7%
CN[C@@H]1C[C@H]2O[C@@](C)([C@@H]1OC)n1c3ccccc3c3c4c(c5c6ccccc6n2c5c31)C(=O)N[C@H]4O [UCN-01] | 60.4%
C[C@@H](Oc1cc(-c2cnn(C3CCNCC3)c2)cnc1N)c1c(Cl)ccc(F)c1Cl [Crizotinib] | 94%
CC1(C)NC(=O)N(c2ccc([N+](=O)[O-])c(C(F)(F)F)c2)C1=O [Nilutamide] | 100%
CNCc1ccc(-c2[nH]c3cc(F)cc4c3c2CCNC4=O)cc1 [Rucaparib] | 94.6%

The compounds below were run on CAL-148 in the same assay as above. Details: 0.3 nM; incubation time: 72 h.
Summary of the method: as §1

Compound | normalised viability
CC(=O)Nc1ccc(C(=O)Nc2ccccc2N)cc1 [CI-994] | 104%
Cc1ccc(C(=O)Nc2ccc(CN3CCN(C)CC3)c(C(F)(F)F)c2)cc1C#Cc1cnc2cccnn12 [Ponatinib] | 96.8%

Same assay, conditions: 3 nM; incubation time: 72 h

Compound | normalised viability
Oc1nc(-c2ccc(C(F)(F)F)cc2)nc2c1CSCC2 [XAV-939] | 89.3%
CC(=O)Nc1ccc(C(=O)Nc2ccccc2N)cc1 [CI-994] | 93.9%
N.N.[Cl][Pt][Cl] [Cisplatin] | 92.1%
Cc1ccc(C(=O)Nc2ccc(CN3CCN(C)CC3)c(C(F)(F)F)c2)cc1C#Cc1cnc2cccnn12 [Ponatinib] | 105%
CN[C@@H]1C[C@H]2O[C@@](C)([C@@H]1OC)n1c3ccccc3c3c4c(c5c6ccccc6n2c5c31)C(=O)N[C@H]4O [UCN-01] | 92.2%
C[C@@H](Oc1cc(-c2cnn(C3CCNCC3)c2)cnc1N)c1c(Cl)ccc(F)c1Cl [Crizotinib] | 91.8%
CC1(C)NC(=O)N(c2ccc([N+](=O)[O-])c(C(F)(F)F)c2)C1=O [Nilutamide] | 95.5%
CNCc1ccc(-c2[nH]c3cc(F)cc4c3c2CCNC4=O)cc1 [Rucaparib] | 90.5%

Same assay, conditions: 10 nM; incubation time: 72 h

Compound | normalised viability
CC(=O)Nc1ccc(C(=O)Nc2ccccc2N)cc1 [CI-994] | 101%
Cc1ccc(C(=O)Nc2ccc(CN3CCN(C)CC3)c(C(F)(F)F)c2)cc1C#Cc1cnc2cccnn12 [Ponatinib] | 110%

Same assay, conditions: 30 nM; incubation time: 72 h

Compound | normalised viability
Oc1nc(-c2ccc(C(F)(F)F)cc2)nc2c1CSCC2 [XAV-939] | 90.4%
N.N.[Cl][Pt][Cl] [Cisplatin] | 102%
CN[C@@H]1C[C@H]2O[C@@](C)([C@@H]1OC)n1c3ccccc3c3c4c(c5c6ccccc6n2c5c31)C(=O)N[C@H]4O [UCN-01] | 105%
C[C@@H](Oc1cc(-c2cnn(C3CCNCC3)c2)cnc1N)c1c(Cl)ccc(F)c1Cl [Crizotinib] | 94.1%
CC1(C)NC(=O)N(c2ccc([N+](=O)[O-])c(C(F)(F)F)c2)C1=O [Nilutamide] | 100%
CNCc1ccc(-c2[nH]c3cc(F)cc4c3c2CCNC4=O)cc1 [Rucaparib] | 87.6%

Same assay, conditions: 100 nM; incubation time: 72 h

Compound | normalised viability
Oc1nc(-c2ccc(C(F)(F)F)cc2)nc2c1CSCC2 [XAV-939] | 94.3%
N.N.[Cl][Pt][Cl] [Cisplatin] | 103%
CN[C@@H]1C[C@H]2O[C@@](C)([C@@H]1OC)n1c3ccccc3c3c4c(c5c6ccccc6n2c5c31)C(=O)N[C@H]4O [UCN-01] | 106%
C[C@@H](Oc1cc(-c2cnn(C3CCNCC3)c2)cnc1N)c1c(Cl)ccc(F)c1Cl [Crizotinib] | 100%
CC1(C)NC(=O)N(c2ccc([N+](=O)[O-])c(C(F)(F)F)c2)C1=O [Nilutamide] | 97%
CNCc1ccc(-c2[nH]c3cc(F)cc4c3c2CCNC4=O)cc1 [Rucaparib] | 92.6%

Each compound was assayed on MDA-MB-468 in the same assay as above. Details: 1 nM; incubation time: 72 h.
Summary of the method: as §1

Compound | normalised viability
CC(=O)Nc1ccc(C(=O)Nc2ccccc2N)cc1 [CI-994] | 99.6%
Cc1ccc(C(=O)Nc2ccc(CN3CCN(C)CC3)c(C(F)(F)F)c2)cc1C#Cc1cnc2cccnn12 [Ponatinib] | 98.2%

Same assay, conditions: 10 nM; incubation time: 72 h

Compound | normalised viability
Oc1nc(-c2ccc(C(F)(F)F)cc2)nc2c1CSCC2 [XAV-939] | 111%
N.N.[Cl][Pt][Cl] [Cisplatin] | 101%
CN[C@@H]1C[C@H]2O[C@@](C)([C@@H]1OC)n1c3ccccc3c3c4c(c5c6ccccc6n2c5c31)C(=O)N[C@H]4O [UCN-01] | 126%
C[C@@H](Oc1cc(-c2cnn(C3CCNCC3)c2)cnc1N)c1c(Cl)ccc(F)c1Cl [Crizotinib] | 107%
